Entries after “also recorded” stand apart in the source; their conditions may differ. Where a name gives a salt, the structure may show the parent alone. Read-outs that look alike come from different tables or passages of the source.
Key:
BSC-1 cells [1] = assay: [14C]COM crystal adhesion to BSC-1 cell monolayers; format: cell-based, African green monkey; details: for IC50 / Half-maximal concentration: concentration that inhibited crystal adhesion by 50%; for IC50 / Kd / Half-maximal concentration / Langmuir affinity constant (dissociation constant): N.I. = noninhibitory; for IC50: read-out: Half-maximal concentration; for Kd / Langmuir affinity constant (dissociation constant): slope of Langmuir isotherm plot of crystal adhesion; for Kd: read-out: Langmuir affinity constant (dissociation constant); for effect on adhesion of COM crystals: concentrations as high as 1 μM
Protocol: (§1) Renal epithelial cells of the nontransformed African green monkey line (BSC-1) were used. Cells were grown in Dulbecco-Vogt modified Eagle's medium containing 25 mM glucose (DMEM), 1.6 μM biotin and 1% calf serum at 38° C. in a CO2 incubator. Under these conditions, BSC-1 cells achieved confluence at 10^6 cells per 60-mm plastic dish (Nunc). High-density, quiescent cultures were prepared by plating 2×10^6 cells in a 60-mm dish. The spent medium was changed after 3 days so that there were 3-4×10^6 cells/dish 6 days later. Medium was then aspirated and replaced with fresh medium containing […] and 0.01% calf serum; 3 days later the quiescent cultures were used for study.
(§2) Crystals are sterilized by heating to 180° C. overnight.
(§3) High-density, quiescent cultures of BSC-1 cells, MDCK cells, or Balb/c3T3 fibroblasts are prepared. At the time of assay, the medium is aspirated and replaced with 5 ml of phosphate-buffered saline (PBS) (10 mM Na2PO4, 155 mM NaCl, 5.4 mM KCl, pH 7.4 at 37° C.) to which the compound under investigation is added. […] The culture dishes are gently agitated for 5 seconds to uniformly distribute crystals which subsequently settle to the surface of the cell monolayer under the force of gravity. After two minutes buffer is aspirated and the cells are then washed three times with PBS (5 ml). The cell monolayer is then scraped directly into a scintillation vial containing 6 N HCl (0.5 ml) to which 4.5 ml of Ecoscint (National Diagnostics, E. Palmetto, Fla.) is added, and the amount of radioactivity is measured as described by Riese, et al. (1992).

BSC-1 cells [2] = assay: Crystal endocytosis by BSC-1 cells; format: cell-based, African green monkey; details: for combined inhibitory effects on COM crystal endocytosis: RGDS 10 μg/ml, heparin 5 μg/ml and TGF-β2 2 ng/ml; for combined stimulatory effects on COM crystal endocytosis: ADP 200 μM and EGF 5 ng/ml
Protocol: as §1
(§4) At specified times after addition of crystals to high-density, quiescent cultures the medium was aspirated and a solution of crystalline trypsin was used to detach cells which were then inspected under a polarizing microscope. One hundred cells from each culture were counted, and each cell was scored for the presence of one or more internalized crystal(s).

MDCK cells [3] = assay: Crystal endocytosis by MDCK cells; format: cell-based, canine; details: COM crystals 200 μg/ml; for inhibition of COM crystal endocytosis by MDCK cells: 10 μg/ml
Protocol: (§5) Madin-Darby Canine Kidney (MDCK) cells were grown in DMEM containing 2% calf serum and 1.6 μM biotin as described previously. To prepare high-density, quiescent cultures 2×10^6 cells/60-mm dish were plated in DMEM containing 2% calf serum and 1.6 μM biotin. The next day medium was aspirated and replaced with fresh medium containing 0.5% calf serum and biotin. One day later the cultures were used for study.
as §4

Balb/c3T3 fibroblasts [4] = assay: Crystal endocytosis by Balb/c3T3 fibroblasts; format: cell-based; details: COM crystals 200 μg/ml; for effect on crystal uptake by fibroblasts: 10 μg/ml
Protocol: (§6) Balb/c3T3 fibroblasts were grown in DMEM containing 10% calf serum. To prepare high-density, quiescent cultures, 7×10^5 cells were plated per 60-mm dish. Two days later the medium was aspirated and replaced with fresh medium containing 1% calf serum and 1.6 μM biotin; the cells were used one day later when a density of […] was reached.
as §4

BSC-1 cells [5] = assay: Adhesion of agent-coated COM crystals to BSC-1 cells; format: cell-based, African green monkey; details: compared with uncoated control crystals
Protocol: Each tube is then centrifuged at 3000 g for 5 minutes. The supernatant is gently aspirated and replaced with a supersaturated calcium oxalate solution to resuspend the coated crystals. To assure removal of any nonabsorbed compound, crystals are resuspended and washed three times in succession. Cell-associated radioactivity is determined 2 minutes after addition of these coated crystals as described herein.

BSC-1 cells [6] = assay: Endocytosis of agent-coated COM crystals by BSC-1 cells; format: cell-based, African green monkey; details: THP 5×10^−8 M; 6×10^−10M in the medium
Text: as §4

MDCK cells [7] = assay: [14C]COM crystal adhesion to MDCK cells; format: cell-based, canine; details: 0.55 μM heparin
Protocol: as §5, §2, §3

Balb/c3T3 fibroblasts [8] = assay: [14C]COM crystal adhesion to 3T3 fibroblasts; format: cell-based; details: 0.55 μM heparin; COM crystals 200 μg/ml
Protocol: as §6, §2, §3

IC50 (BSC-1 cells [1]) [nM]	Compound	concentration above which COM crystal adhesion was inhibited (BSC-1 cells [1])	effect on adhesion of COM crystals to BSC-1 cells (in words) (BSC-1 cells [1])	Kd (BSC-1 cells [1]) [nM]	adhesion of crystals previously coated with the molecule (BSC-1 cells [5])	further results
	O=C(O)CC(O)(CC(=O)O)C(=O)O [Sodium citrate]	above 250 μM	inhibited binding of COM crystals	431000		IC50 (BSC-1 cells [1]; Chlorocebus sabaeus, BSC-1): 200000 nM
	arginine-glycine-aspartic acid-serine [RGDS]					inhibition of COM crystal endocytosis compared to control (BSC-1 cells [2]; RGDS 5 μg/ml): 30%; combined inhibitory effects on COM crystal endocytosis (BSC-1 cells [2]): not additive; maximal inhibition of COM crystal endocytosis (BSC-1 cells [2]; RGDS at higher concentrations (above 5 μg/ml)): 41%; inhibition of COM crystal endocytosis by MDCK cells (MDCK cells [3]): 48%; effect on crystal uptake by fibroblasts (Balb/c3T3 fibroblasts [4]): did not alter crystal uptake by fibroblasts
600	Chondroitin sulfate A	above 1.4 μM	prevented binding of COM crystals	38		
10	Polyglutamic acid	> 0.02 µM	blocked adherence of COM crystals	26	less than control	
20	Hyaluronic acid	above 0.01 μM	prevented binding of COM crystals	13		
	THP: urinary Tamm-Horsfall glycoprotein, most abundant protein in human urine		no effect			Half-maximal concentration (BSC-1 cells [1]): N.I.; effect on adhesion of COM crystals to BSC-1 cells (in words) (BSC-1 cells [1]; listed as Tamm-Horsfall glycoprotein): did not; Langmuir affinity constant (dissociation constant) (BSC-1 cells [1]): N.I.; decrease in COM crystal endocytosis (BSC-1 cells [2]; THP 5×10−8 M): 34%; decrease in COM crystal endocytosis (BSC-1 cells [2]; THP 10^−8 M): 21%; endocytosis of crystals incubated with THP and added directly without centrifuging (BSC-1 cells [6]): to the same extent as uncoated crystals
10	Dextran sulfate	> 0.01 µM		13	less than control	
	EGF: epidermal growth factor, mitogen					combined stimulatory effects on COM crystal endocytosis (BSC-1 cells [2]): not additive; increase in COM crystal endocytosis compared to control (BSC-1 cells [2]; EGF 10 ng/ml): 55%
20	Pentosan polysulfate	above 0.33 μM		131		
	protamine sulfate					effect on heparin inhibition of crystal binding, added after heparin (BSC-1 cells [1]; after 30 minutes exposure to heparin): completely reversed inhibition of crystal binding; effect on heparin inhibition of crystal adhesion, added together with heparin (BSC-1 cells [1]; protamine sulfate 100 μg/ml with heparin 10 μg/ml): abolished the polyanion's inhibitory effect; effect on crystal adhesion, alone (BSC-1 cells [1]; protamine sulfate alone): inert
	CC(=O)NC1C(O)OC(COS(=O)(=O)O)C(O)C1OC1OC(C(=O)O)=CC(O)C1O (centres unmarked) [6-S]		without effect			
20	Uropontin: urinary glycoprotein, inhibitor of COM crystal growth		inhibited binding of COM crystals; also recorded: blocking adhesion of COM crystals to BSC-1 cells	43	less than control	block of COM crystal binding (BSC-1 cells [1]; uropontin 0.1 μM): 73%
	albumin				to the same extent as did uncoated crystals	
	Polyarginine				to the same extent as did uncoated crystals	Half-maximal concentration (BSC-1 cells [1]): N.I.; effect on adhesion of COM crystals (BSC-1 cells [1]): no effect; Langmuir affinity constant (dissociation constant) (BSC-1 cells [1]): N.I.
	Fibronectin					maximal inhibition of COM crystal endocytosis (BSC-1 cells [2]; fibronectin 2.5 μg/ml): 33%; inhibition of COM crystal endocytosis by MDCK cells (MDCK cells [3]): 59%; effect on crystal uptake by fibroblasts (Balb/c3T3 fibroblasts [4]): did not alter crystal uptake by fibroblasts
15	heparin		blocked	43	less than control	adhesion of crystals after heparin added later than crystals (BSC-1 cells [1]; heparin 10 μg/ml (0.55 μM) added 1 to 30 minutes after crystals, measured after 60 minutes): appeared to stop immediately; displacement of crystals already bound to cells (BSC-1 cells [1]; heparin 10 μg/ml present for up to an additional 55 minutes): did not appear to displace crystals already bound to cells; decrease in adherence of COM crystals (BSC-1 cells [1]; heparin 18,000 Da at 0.006 μM): 33%; Maximal inhibition of COM crystal adhesion (BSC-1 cells [1]; heparin 18,000 Da at concentrations above 0.028 μM): 95%; maximal inhibition of adhesion of COM crystals to MDCK cells (MDCK cells [7]): 89%; decrease in adhesion of COM crystals to 3T3 fibroblasts (Balb/c3T3 fibroblasts [8]): 85%; combined inhibitory effects on COM crystal endocytosis (BSC-1 cells [2]): not additive; decrease in COM crystal endocytosis compared to control (BSC-1 cells [2]; heparin 2 μg/ml): 36%; effect on COM crystal uptake at higher concentration (BSC-1 cells [2]; heparin as high as 100 μg/ml): did not inhibit uptake further; inhibition of COM crystal endocytosis in MDCK cells (MDCK cells [3]; heparin): 60%; inhibition of COM crystal endocytosis in fibroblasts (Balb/c3T3 fibroblasts [4]; heparin): 24%
100	Heparan sulfate	above 0.8 μM	prevented binding of COM crystals	881		effect on endocytosis of COM crystals (BSC-1 cells [2]; heparan sulfate 2-25 μg/ml): did not alter endocytosis of COM crystals
7	Polyaspartic acid	above 0.007 μM	blocked adherence of COM crystals	23	less than control	
	Chondroitin sulfate C					Half-maximal concentration (BSC-1 cells [1]): N.I.; effect on COM crystal adherence (BSC-1 cells [1]; concentrations as high as 37 μM): no effect; Langmuir affinity constant (dissociation constant) (BSC-1 cells [1]): N.I.
	Nc1ncnc2c1ncn2[C@@H]1O[C@H](COP(=O)(O)OP(=O)(O)O)[C@@H](O)[C@H]1O [ADP, adenosine diphosphate]					increase in COM crystal uptake compared to control (BSC-1 cells [2]; ADP 2 μM): 52%; combined stimulatory effects on COM crystal endocytosis (BSC-1 cells [2]): not additive
	CC(=O)NC1C(O)OC(CO)C(O)C1OC1OC(C(=O)O)=CC(O)C1O (centres unmarked) [0-S]		without effect			
100	Chondroitin sulfate B	> 0.4 µM	prevented binding of COM crystals	206	less than control	
	CC(=O)NC1C(O)OC(CO)C(OS(=O)(=O)O)C1OC1OC(C(=O)O)=CC(O)C1O (centres unmarked) [4-S]		without effect			
20	Polyvinyl sulfate	> 0.1 µM		49		

Compound	IC50 (BSC-1 cells [1]) [nM]	concentration above which COM crystal adhesion was inhibited (BSC-1 cells [1])	effect on adhesion of COM crystals to BSC-1 cells (in words) (BSC-1 cells [1])	Kd (BSC-1 cells [1]) [nM]	adhesion of crystals previously coated with the molecule (BSC-1 cells [5])	further results
Polylysine	2500				to the same extent as did uncoated crystals	effect on adhesion of COM crystals (BSC-1 cells [1]): no effect
O=C(O)CC(CC(=O)O)(OP(=O)(O)O)C(=O)O [Phosphocitrate]	50000	above 50 μM		43800		
